Experimental data as given in US20250057819A1, “DRUG COMBINATIONS FOR INHIBITING CORONAVIRUS REPLICATION” (priority 2021, published 2025).
Where a name gives a salt, the structure may show the parent alone. Read-outs that look alike come from different tables or passages of the source.

Columns and labels:
rHCoVs-OC43 = assay: microbe, parasite or virus in culture; format: cell-based
[1] = Cell viability assay (MTT) in HRT-18 cells; details: human, CC50 (μM)
[2] = 48 h, drug 2 alone (fast synergy screening table), read-out: IC50
[3] = drug 2 alone (fast synergy screening table), read-out: IC50
[4] = drug alone, HRT-18 cells, MOI 0.025, 48 h treatment, decrease of Rluc, read-out: EC50
[5] = drug 2 alone (fast synergy screening table)
[6] = drug alone, HRT-18 cells, 48 h treatment, MTT

| SMILES | IC50 (rHCoVs-OC43; [2]) [µM] | IC50 (rHCoVs-OC43; [3]) [µM] | EC50 (rHCoVs-OC43; [4]) [µM] | CC50 at 48 h [1, 5] [µM] | CC50 at 48 h [1, 6] [µM] | IC50 (rHCoVs-OC43; 48 h) [µM] | EC50 (rHCoVs-OC43; HRT-18, 48 h) [µM] |
| --- | --- | --- | --- | --- | --- | --- | --- |
| C=C1/C(=C\C=C2/CCC[C@]3(C)[C@@H]([C@H](C)CCCC(C)C)CC[C@@H]23)C[C@@H](O)C[C@@H]1O [Alfacalcidol] | 1.7 | 1.7 | 1.7 | > 10 | > 10 |  |  |
| CCOC(=O)C1=C(COCCN)NC(C)=C(C(=O)OC)C1c1ccccc1Cl (stereo not shown) [Amlodipine benzenesulphonate] | 5.2 | 5.2 | 5.2 | > 10 | > 10 |  |  |
| CCN(CC)Cc1cc(Nc2ccnc3cc(Cl)ccc23)ccc1O [Amodiaquine] | 1.2 | 1.2 | 1.2 | > 10 | > 10 |  |  |
| CCN(CC)CCCC(C)Nc1ccnc2cc(Cl)ccc12 (stereo not shown) [Chloroquine] | 0.066 |  | 0.066 |  |  |  |  |
| CN(C)CC/C=C1/c2ccccc2Sc2ccc(Cl)cc21 [Chlorprothixene] |  |  | 7.5 |  | > 10 |  |  |
| CC(C)/N=c1\cc2n(-c3ccc(Cl)cc3)c3ccccc3nc-2cc1Nc1ccc(Cl)cc1 [Clofazimine] | 1.8 | 1.8 | 1.8 | > 10 | > 10 |  |  |
| CCN(CC)CCOc1ccc(C(=C(Cl)c2ccccc2)c2ccccc2)cc1 [Clomiphene citrate] |  |  |  | > 10 | > 10 |  |  |
| CN(C)CCCN1c2ccccc2CCc2ccc(Cl)cc21 [Clomipramine hydrochloride] |  |  |  |  | > 10 |  |  |
| CN(C)[C@@H](CCOc1cccc2ccccc12)c1ccccc1 [Dapoxetine hydrochloride] |  |  | 4.7 |  | > 10 |  |  |
| C[C@H]1O[C@@H](O[C@H]2[C@@H](O)C[C@H](O[C@H]3[C@@H](O)C[C@H](O[C@H]4CC[C@@]5(C)[C@H](CC[C@@H]6[C@@H]5CC[C@]5(C)[C@@H](C7=CC(=O)OC7)CC[C@]65O)C4)O[C@@H]3C)O[C@@H]2C)C[C@H](O)[C@@H]1O [Digitoxin] | 0.021 |  | 0.021 | 0.08 | 0.08 |  |  |
| C[C@H]1O[C@@H](O[C@H]2[C@@H](O)C[C@H](O[C@H]3[C@@H](O)C[C@H](O[C@H]4CC[C@@]5(C)[C@H](CC[C@@H]6[C@@H]5C[C@@H](O)[C@]5(C)[C@@H](C7=CC(=O)OC7)CC[C@]65O)C4)O[C@@H]3C)O[C@@H]2C)C[C@H](O)[C@@H]1O [Digoxin] |  |  | 0.028 |  |  | 0.028 |  |
| OCCN(CCO)c1nc(N2CCCCC2)c2nc(N(CCO)CCO)nc(N3CCCCC3)c2n1 [Dipyridamole] |  |  | 4.1 |  | > 10 |  |  |
| CCN(CC)C(=S)SSC(=S)N(CC)CC [Disulfiram] |  |  | 0.18 |  | 0.23 |  |  |
| COc1cc2nc(N3CCN(C(=O)C4COc5ccccc5O4)CC3)nc(N)c2cc1OC (stereo not shown) [Doxazosin mesylate] |  |  | 3.2 |  | > 10 |  |  |
| CNCC[C@H](Oc1cccc2ccccc12)c1cccs1 [Duloxetine hydrochloride] |  |  |  |  | > 10 |  | 4.8 |
| Cn1cc(C2=C(c3cn(C4CCN(Cc5ccccn5)CC4)c4ccccc34)C(=O)NC2=O)c2ccccc21 [Enzastaurin hydrochloride] |  |  | 2.8 |  | > 10 |  |  |
| CCCCCCCCc1ccc(CCC(N)(CO)CO)cc1 [Fingolimod hydrochloride] | 3.9 | 3.9 | 3.9 | > 10 | 10 |  |  |
| Oc1c(Cl)cc(Cl)c(Cl)c1Cc1c(O)c(Cl)cc(Cl)c1Cl [Hexachlorophene] | 0.39 |  | 0.39 |  |  |  |  |
| Cc1nc2n(c(=O)c1CCN1CCC(c3noc4cc(F)ccc34)CC1)CCCC2 [Risperidone] |  |  |  |  | > 10 |  |  |
| CN[C@H]1CC[C@@H](c2ccc(Cl)c(Cl)c2)c2ccccc21 [Sertraline hydrochloride] |  |  |  | > 10 | > 10 |  |  |
| CC/C(=C(\c1ccccc1)c1ccc(OCCN(C)C)cc1)c1ccccc1 [Tamoxifen] |  |  |  |  | > 10 |  |  |
| CSc1ccc2c(c1)N(CCC1CCCCN1C)c1ccccc1S2 (stereo not shown) [Thioridazine hydrochloride] |  |  |  | > 10 | > 10 |  |  |
